Reference: PubChem BioAssay (NCI)
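Compound exposure: 48 hours, 5 concentrations, 96-well plates. GI50 marks 50% less growth. The concentration for full growth arrest is given as TGI.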

Legend:
Assay in all cases: NCI-60 cell line screen, 48 h
RPMI-8226 leukemia = tested on: RPMI-8226 leukemia
K-562 leukemia = tested on: K-562 leukemia
PC-3 prostate = tested on: PC-3 prostate
SK-OV-3 ovarian = tested on: SK-OV-3 ovarian
BT-549 breast = tested on: BT-549 breast
NCI-H226 lung = tested on: NCI-H226 lung
SNB-19 CNS = tested on: SNB-19 CNS
SNB-75 CNS = tested on: SNB-75 CNS
COLO 205 colon = tested on: COLO 205 colon
KM12 colon = tested on: KM12 colon
CCRF-CEM leukemia = tested on: CCRF-CEM leukemia
HOP-92 NSCLC = tested on: HOP-92 NSCLC
U251 CNS = tested on: U251 CNS
LOX IMVI melanoma = tested on: LOX IMVI melanoma
MOLT-4 leukemia = tested on: MOLT-4 leukemia
A498 renal = tested on: A498 renal
TK-10 renal = tested on: TK-10 renal
786-0 renal = tested on: 786-0 renal
MDA-MB-231 breast = tested on: MDA-MB-231 breast
NCI-H460 lung = tested on: NCI-H460 lung
SW-620 colon = tested on: SW-620 colon
HCT-116 colon = tested on: HCT-116 colon
ACHN renal = tested on: ACHN renal
OVCAR-5 ovarian = tested on: OVCAR-5 ovarian
UACC-62 melanoma = tested on: UACC-62 melanoma
HCT-15 colon = tested on: HCT-15 colon
T-47D breast = tested on: T-47D breast
UACC-257 melanoma = tested on: UACC-257 melanoma
SF-268 CNS = tested on: SF-268 CNS
DU-145 prostate = tested on: DU-145 prostate
OVCAR-3 ovarian = tested on: OVCAR-3 ovarian
HL-60(TB) leukemia = tested on: HL-60(TB) leukemia
SN12C renal = tested on: SN12C renal
SR leukemia = tested on: SR leukemia
SK-MEL-5 melanoma = tested on: SK-MEL-5 melanoma
HS 578T breast = tested on: HS 578T breast
UO-31 renal = tested on: UO-31 renal
SK-MEL-2 melanoma = tested on: SK-MEL-2 melanoma
OVCAR-4 ovarian = tested on: OVCAR-4 ovarian
A549 NSCLC = tested on: A549 NSCLC
RXF 393 renal = tested on: RXF 393 renal
EKVX NSCLC = tested on: EKVX NSCLC
MDA-MB-435 = tested on: MDA-MB-435
MALME-3M melanoma = tested on: MALME-3M melanoma
SF-539 CNS = tested on: SF-539 CNS
HOP-62 NSCLC = tested on: HOP-62 NSCLC
SF-295 CNS = tested on: SF-295 CNS
OVCAR-8 ovarian = tested on: OVCAR-8 ovarian
HT29 colon = tested on: HT29 colon
SK-MEL-28 melanoma = tested on: SK-MEL-28 melanoma
MCF7 breast = tested on: MCF7 breast
NCI-H522 lung = tested on: NCI-H522 lung
IGROV1 ovarian = tested on: IGROV1 ovarian
M14 melanoma = tested on: M14 melanoma
HCC-2998 colon = tested on: HCC-2998 colon
NCI-H23 lung = tested on: NCI-H23 lung
NCI/ADR-RES ovarian = tested on: NCI/ADR-RES ovarian

SMILES: O=c1ccccc(-c2ccc(Br)cc2)c1O
- GI50 (RPMI-8226 leukemia): 401 nM
- TGI (RPMI-8226 leukemia): 25000 nM
- GI50 (K-562 leukemia): 463 nM
- TGI (K-562 leukemia): > 100000 nM
- GI50 (PC-3 prostate): 628 nM
- TGI (PC-3 prostate): 37300 nM
- GI50 (SK-OV-3 ovarian): 428 nM
- TGI (SK-OV-3 ovarian): 24100 nM
- GI50 (BT-549 breast): 795 nM
- TGI (BT-549 breast): 54000 nM
- GI50 (NCI-H226 lung): 1040 nM
- TGI (NCI-H226 lung): 16600 nM
- GI50 (SNB-19 CNS): 459 nM
- TGI (SNB-19 CNS): > 100000 nM
- GI50 (SNB-75 CNS): 611 nM
- TGI (SNB-75 CNS): 27600 nM
- GI50 (COLO 205 colon): 466 nM
- TGI (COLO 205 colon): 27000 nM
- GI50 (KM12 colon): 430 nM
- TGI (KM12 colon): 22600 nM
- GI50 (CCRF-CEM leukemia): 291 nM
- TGI (CCRF-CEM leukemia): > 100000 nM
- GI50 (HOP-92 NSCLC): 6530 nM
- TGI (HOP-92 NSCLC): 34100 nM
- GI50 (U251 CNS): 383 nM
- TGI (U251 CNS): 13600 nM
- GI50 (LOX IMVI melanoma): 323 nM
- TGI (LOX IMVI melanoma): 13800 nM
- GI50 (MOLT-4 leukemia): 334 nM
- TGI (MOLT-4 leukemia): > 100000 nM
- GI50 (A498 renal): 1210 nM
- TGI (A498 renal): 7680 nM
- GI50 (TK-10 renal): 541 nM
- TGI (TK-10 renal): 70700 nM
- GI50 (786-0 renal): 408 nM
- TGI (786-0 renal): 21700 nM
- GI50 (MDA-MB-231 breast): 737 nM
- TGI (MDA-MB-231 breast): 35700 nM
- GI50 (NCI-H460 lung): 318 nM
- TGI (NCI-H460 lung): 10600 nM
- GI50 (SW-620 colon): 410 nM
- TGI (SW-620 colon): 40500 nM
- GI50 (HCT-116 colon): 404 nM
- TGI (HCT-116 colon): 14600 nM
- GI50 (ACHN renal): 367 nM
- TGI (ACHN renal): 25100 nM
- GI50 (OVCAR-5 ovarian): 725 nM
- TGI (OVCAR-5 ovarian): > 100000 nM
- GI50 (UACC-62 melanoma): 298 nM
- TGI (UACC-62 melanoma): 1730 nM
- GI50 (HCT-15 colon): 256 nM
- TGI (HCT-15 colon): 36000 nM
- GI50 (T-47D breast): 562 nM
- TGI (T-47D breast): 41300 nM
- GI50 (UACC-257 melanoma): 230 nM
- TGI (UACC-257 melanoma): 8760 nM
- GI50 (SF-268 CNS): 420 nM
- TGI (SF-268 CNS): > 100000 nM
- GI50 (DU-145 prostate): 595 nM
- TGI (DU-145 prostate): 45000 nM
- GI50 (OVCAR-3 ovarian): 412 nM
- TGI (OVCAR-3 ovarian): 27600 nM
- GI50 (HL-60(TB) leukemia): 262 nM
- TGI (HL-60(TB) leukemia): 718 nM
- GI50 (SN12C renal): 829 nM
- TGI (SN12C renal): 16400 nM
- GI50 (SR leukemia): 316 nM
- TGI (SR leukemia): 17100 nM
- GI50 (SK-MEL-5 melanoma): 247 nM
- TGI (SK-MEL-5 melanoma): 701 nM
- GI50 (HS 578T breast): 4610 nM
- TGI (HS 578T breast): 83800 nM
- GI50 (UO-31 renal): 369 nM
- TGI (UO-31 renal): 20400 nM
- GI50 (SK-MEL-2 melanoma): 957 nM
- TGI (SK-MEL-2 melanoma): 25800 nM
- GI50 (OVCAR-4 ovarian): 330 nM
- TGI (OVCAR-4 ovarian): 27300 nM
- GI50 (A549 NSCLC): 322 nM
- TGI (A549 NSCLC): 24000 nM
- GI50 (RXF 393 renal): 324 nM
- TGI (RXF 393 renal): 8120 nM
- GI50 (EKVX NSCLC): 343 nM
- TGI (EKVX NSCLC): 15000 nM
- GI50 (MDA-MB-435): 386 nM
- TGI (MDA-MB-435): > 100000 nM
- GI50 (MALME-3M melanoma): 2180 nM
- TGI (MALME-3M melanoma): 47700 nM
- GI50 (SF-539 CNS): 458 nM
- TGI (SF-539 CNS): 12100 nM
- GI50 (HOP-62 NSCLC): 377 nM
- TGI (HOP-62 NSCLC): 15900 nM
- GI50 (SF-295 CNS): 340 nM
- TGI (SF-295 CNS): 16800 nM
- GI50 (OVCAR-8 ovarian): 383 nM
- TGI (OVCAR-8 ovarian): > 100000 nM
- GI50 (HT29 colon): 6440 nM
- TGI (HT29 colon): 36800 nM
- GI50 (SK-MEL-28 melanoma): 489 nM
- TGI (SK-MEL-28 melanoma): 26400 nM
- GI50 (MCF7 breast): 311 nM
- TGI (MCF7 breast): 46800 nM
- GI50 (NCI-H522 lung): 461 nM
- TGI (NCI-H522 lung): 40900 nM
- GI50 (IGROV1 ovarian): 432 nM
- TGI (IGROV1 ovarian): > 100000 nM
- GI50 (M14 melanoma): 316 nM
- TGI (M14 melanoma): 13100 nM
- GI50 (HCC-2998 colon): 425 nM
- TGI (HCC-2998 colon): 21800 nM
- GI50 (NCI-H23 lung): 528 nM
- TGI (NCI-H23 lung): 15800 nM
- GI50 (NCI/ADR-RES ovarian): 289 nM
- TGI (NCI/ADR-RES ovarian): 2370 nM
